Measured values published in patent publication EP1184030A1, “Antibacterial composition comprising trimethylnorbornanylcyclohexanol derivatives” (Givaudan SA, priority 2000, dated 2002).
≈ marks a conversion by molar mass, not a printed value. Where two headings read alike, the source gives them in different places.

Key:
Test in all cases: MIC microtiter plate test, axilla bacteria
Type in all cases: cell-based
[1] = tested on: Ax 10 Corynebacterium jeikeium; conditions: Corynebacterium jeikeium, 24 h, read-out: Minimal inhibitory concentration (MIC)
Text: (§1) The different bacterial strains had been isolated from the human axilla by current microbiological practice. They were taxonomically identified by cell morphology, gram-reaction and biochemical tests included in the Api coryne test kit (BioMerieux, France). Strain Staphylococcus epidermidis Ax25 was identified by fatty acid methyl ester analysis (FAME; German type strain collection DSMZ, Germany). The strains were maintained on Tryptic soy broth plates, this standard medium being amended with 5 g per Litre of Tween 80 and 1 g of Soybean lecithin. Plates were incubated at 36° C for a period 48 hours. The bacteria were then swabbed from the plates and suspended in 4 ml of Müller-Hinton broth amended with 100 mg of Tween80 per Litre (MH-Tween) and incubated again at 36° C for 16 hours. Following incubation the bacterial suspensions were diluted in MH-Tween to obtain a final cell density of 10^6 colony forming units per ml. For each fragrance material four microtiter plates were used in the example, each microtiter plate having 8 rows, A-H, and 12 columns, 1-12. To each column a diluted suspension of a different test organism was distributed, 100 µl per well. 1% stock solutions of the fragrance materials were then prepared in MH-Tween broth. The fragrance material was dispersed by ultrasonication into the aqueous medium to obtain a homogenous emulsion. 100 µl per well of this emulsion was then added to the first row of the microtiter plates already containing the target organisms. Serial dilution series were then prepared starting at row A and continuing until row G, each time removing 100 µl from a well and transferring it to the next well. In this way fragrance concentrations of 0.5%, 0.25%, 0.125%, 0.0625%, 0.03125%, 0.0156% and 0.0078% were tested for their antibacterial efficacy. The reference compound Triclosan was tested at 16 fold lower concentrations. The plates were covered with plastic films and incubated for 24 h at 36° C with shaking at 250 rpm. The turbidity developing in the microtiter plates was then examined after 24 h to determine microbial growth. The minimal concentration of fragrance inhibiting the growth of an organism by at least 80% was determined as the minimal inhibitory concentration (MIC).
(§2) Ax 25 was identified as Staphylococcus epidermidis by FAME analysis. Identification with the Api Coryne test kit yielded the following species assignments for the remainder of the strains: Ax 26 Corynebacterium sp.; Ax 3 Corynebacterium bovis; Ax 7 Corynebacterium group G; Ax 10 Corynebacterium jeikeium; Ax 11 Corynebacterium jeikeium; Ax 12 Corynebacterium jeikeium; Ax 15 Corynebacterium jeikeium; Ax 20 Corynebacterium striatum/amycolatum; Ax 19 Corynebacterium jeikeium. The strains were isolated from the axilla of 8 human volunteers. Based on biochemical tests and colony morphology all strains were distinct from each other, even the several strains all belonging to Corynebacterium jeikeium.

[2] = tested on: Ax 11 Corynebacterium jeikeium; conditions: Corynebacterium jeikeium, 24 h, read-out: Minimal inhibitory concentration (MIC)
Text: as §1, §2

[3] = tested on: Ax 12 Corynebacterium jeikeium; conditions: Corynebacterium jeikeium, 24 h, read-out: Minimal inhibitory concentration (MIC)
Text: as §1, §2

[4] = tested on: Ax 15 Corynebacterium jeikeium; conditions: for MIC: Corynebacterium jeikeium, 24 h
Text: as §1, §2

[5] = tested on: Ax 19 Corynebacterium jeikeium; conditions: 24 h, read-out: Minimal inhibitory concentration (MIC)
Text: as §1, §2

[6] = tested on: Ax 20 Corynebacterium striatum/amycolatum; conditions: Corynebacterium striatum, 24 h, read-out: Minimal inhibitory concentration (MIC)
Text: as §1, §2

[7] = tested on: Ax 26 Corynebacterium sp.; conditions: for MIC: Corynebacterium
Text: as §1, §2

[8] = tested on: Ax 3 Corynebacterium bovis; conditions: Corynebacterium bovis, 24 h, read-out: Minimal inhibitory concentration (MIC)
Text: as §1, §2

[9] = tested on: Ax 7 Corynebacterium group G; conditions: for MIC: Corynebacterium, 24 h
Text: as §1, §2

[10] = tested on: Staphylococcus epidermidis Ax25; conditions: for MIC: Staphylococcus epidermidis, AX25, 24 h
Text: as §1, §2

[11] = read-out: Bacteriostatic activity (concentration needed for at least 80% reduction in growth)
[12] = read-out: Minimal inhibitory concentration (MIC)

Structure (SMILES): Oc1cc(Cl)ccc1Oc1ccc(Cl)cc1Cl [Triclosan, 2,4,4'-trichloro-2'-hydroxy-diphenyl-ether]
- MIC [1]: 20 µg/mL (≈ 69.1 µM)
- MIC [2]: 29 µg/mL (≈ 100 µM)
- MIC [3]: 17 µg/mL (≈ 58.7 µM)
- MIC [4, 11]: 30 µg/mL (≈ 104 µM)
- MIC [4, 12]: 29 µg/mL (≈ 100 µM)
- Bacteriostatic activity (concentration needed for at least 80% reduction in growth) ([4]; Table 8, Corynebact. Ax15, 24 hours): 0.0030 percent (w/v)
- MIC [5]: 39 µg/mL (≈ 135 µM)
- MIC [6]: 107 µg/mL (≈ 370 µM)
- MIC ([7]; Ax26, growth inhibition by at least 80%, 24 h at 36° C, read-out: Minimal inhibitory concentration (MIC)): 15 µg/mL (≈ 51.8 µM)
- MIC ([7]; Table 7, Corynebact. Ax26, 24 hours, read-out: Bacteriostatic activity (concentration needed for at least 80% reduction in growth)): 25 µg/mL (≈ 86.3 µM)
- Bacteriostatic activity (concentration needed for at least 80% reduction in growth) ([7]; Table 8, Corynebact. Ax26, 24 hours): 0.0025 percent (w/v)
- MIC [8]: 29 µg/mL (≈ 100 µM)
- MIC [9, 11]: 25 µg/mL (≈ 86.3 µM)
- MIC [9, 12]: 29 µg/mL (≈ 100 µM)
- Bacteriostatic activity (concentration needed for at least 80% reduction in growth) ([9]; Table 8, Corynebact. Ax7, 24 hours): 0.0025 percent (w/v)
- MIC [10, 11]: 0.15 µg/mL (≈ 0.518 µM)
- MIC [10, 12]: 0.15 µg/mL (≈ 0.518 µM)
- Bacteriostatic activity (concentration needed for at least 80% reduction in growth) ([10]; Table 8, S. epidermidis, 24 hours): 0.000015 percent (w/v)
